# Measured values from patent US20170056379A1, “METHOD OF USING DOPAMINE REUPTAKE INHIBITORS AND THEIR ANALOGS FOR TREATING DIABETES SYMPTOMS AND DELAYING OR […]-[…]” (CALIPER LIFE SCIENCES, INC., priority 2009, published 2017).
# Entries after “also recorded” stand apart in the source; their conditions may differ.
# Legend:
# Type in all cases: in vivo
# FVB strain of mice [1] = assay: Mediation of hyperglycemic conditions: blood glucose and body mass in high fat diet mice; settings: 10 mg/kg p.o. daily six days a week, after 4 weeks of treatment
# Source text: Mediation of hyperglycemic conditions—FVB strain of mice were used in this study. In our previous study (unpublished), we noted that the FVB strain provides a broad phenotypic window for most parameters of human diabetic conditions similar to C57B1/6. For instance, there was a noted weight gain and obesity induced with high and intermediate fat diets. A persistent high fat diet induces relatively robust hyperglycemic conditions and inefficient glucose disposal but with little noted effects on metabolic rate. There is little circadian impact and changes in activity patterns with the high fat diet.
# Twenty FVB mice (˜12 weeks of age) were randomly separated into two groups (n=10). One group (of ten mice) was fed a high fat diet (ResearchDiets, New Brunswick, N.J., and Cat. #D12492); with the following caloric components: 20 percent protein; 20 percent carbohydrate; and 60 percent fat; 5.24 kcal/gram. Another group was fed with regular rodent chow (Labdiet, Richmond, Ind., product code 5010); 28.7 percent protein, 12.7 percent fat, and 58.6 percent carbohydrate; 3.43 kcal/gram. After seven-weeks, blood glucose levels (and body weight) of the two different groups were examined. […] The group fed on the high fat diet clearly developed a hyperglycemic condition. The difference in body mass was also clearly significant.
# Each of the two groups were then further separated into two subgroups (n=5). For the high fat diet group, the separation of the animals from the hyperglycemic/high fat diet group into two sub-groups was normalized based on the blood glucose levels. One group, designated as high fat-D, were treated with a dopamine reuptake inhibitor (3-(phenylpropyl)-sydnonimine-N-phenylcarbamoyl), the other group, designated as high fat-N were treated with vehicle (30% captosol, 1% Tween (Tween® 20, a polyoxyethylene sorbitan esters available from Sigma) and 1% 1N HCl in H2O; hereafter referred to as vehicle). For the normal chow group, the separation was random but similarly designated and separated into drug treated (Normal-D) and vehicle controls (Normal-N). […]
# FVB strain of mice [2] = assay: Home-cage health and behavior; settings: high-fat-diet-drug-treated group, in contrast to the high-fat-diet-vehicle-treated group
# Source text: Home-cage health and behavior—This is not a […] measurement but the behavior pattern that we noticed during the study. All 4 groups of animals were housed in pairs or trios according to stratification of either treated with drug or vehicle. For three of the 4 groups, e.g. Normal Diet-drug-treated, Normal Diet-vehicle-treated, and high-fat-diet-drug-treated, the animals appear to be healthy, were docile to handlers and non-aggressive with each other. However the high-fat-diet-vehicle-treated group started to develop underbelly lesions, bite marks, and aggressive behavior towards littermates. This pattern of behavior became especially noticeable after overnight fasting (in order for fasting blood glucose level). In fact, after the above mentioned second examination (examination of fasting blood glucose level after 4 weeks of drug treatment), one of the mice in the high-fat-diet-vehicle-treated group had to be euthanized due to wounds and lesions. The remainders (of the four mice) were subsequently housed individually. These changes of behavior patterns and or behavior oddities are likely indicative of neurological changes under pre-diabetic or diabetic conditions.
# FVB strain of mice [3] = assay: Mediation of diabetic-induced hypoalgesia (Hot-plate assay); settings: for (Mean − Mean0)/Std0 (Wilcoxon rank sums, hot plate latency) / Score Mean (Wilcoxon rank sums, hot plate latency) / Score Sum (Wilcoxon rank sums, hot plate latency): hot plate 48° C.
# Description: Mediation of diabetic-induced hypoalgesia (Hot-plate assay)—Mice were brought to the testing room and acclimatized for an hour before test. Pain reflexes in response to a thermal stimulus are measured using a Hot Plate Analgesia Meter from Harvard Apparatus. The plate surface was maintained at 48° C. that was measured by a built-in digital thermometer. Mice were placed on the hot plate which is surrounded by a clear acrylic cage with the Start/Stop trigger on the timer. […] For each subject, the test was performed three times with about 30 minute rest between tests. Animals were tested one at a time and were not habituated to the apparatus prior to testing.
# FVB strain of mice [4] = assay: Mediation of diabetic hypoalgesia (Tail-flick assay); settings: for (Mean − Mean0)/Std0 (Wilcoxon rank sums, tail-flick latency) / Score Mean (Wilcoxon rank sums, tail-flick latency) / Score Sum (Wilcoxon rank sums, tail-flick latency): 5.0 mg/kg p.o. an hour before test
# Description: Mediation of diabetic hypoalgesia (Tail-flick assay)—Mice were brought to the testing room, acclimatized and administered 3-(phenylpropyl)-sydnonimine-N-phenylcarbamoyl (5.0 mg/kg; p.o.) an hour before test. Pain reflexes in response to a thermal stimulus are measured using a tail-flick analgesic meter with a built in stop-timer from Columbus Instruments. Latencies to respond for the thermal stimulation is recorder. For each subject, the test was performed three times with about 30 minute rests between tests. Animals are tested one at a time and are not habituated to the apparatus prior to testing.
smiles,measurement,setting,value
CC(Cc1ccccc1)[n+]1cc([N-]C(=O)Nc2ccccc2)on1 (centres unmarked) [3-(phenylpropyl)-sydnonimine-N-phenylcarbamoyl],body mass of high fat diet groups compared with Normal Diet groups,FVB strain of mice [1],still noticeably higher than the groups on the Normal Diet regardless of the drug exposure
same,blood glucose levels of drug treated groups compared with respective sham treated groups,FVB strain of mice [1]; high fat and Normal Diet groups,lower levels of blood glucose than their respective sham treated groups
same,blood glucose levels of high fat diet drug treated mice compared with Normal Diet group,"FVB strain of mice [1]; high fat diet, 10 mg/kg",indistinguishable from the group of mice fed a Normal Diet; also recorded: no discernable differences
same,home-cage health and behavior,FVB strain of mice [2],"remained healthy, docile and playful with littermates"
same,thermal responses of high-fat-diet-drug-treated subjects compared with Normal Diet-vehicle-treated (hot plate),FVB strain of mice [3]; FIG. 3,virtually no difference was observed
same,effect on hypoalgesic conditions induced by diabetic conditions (hot plate test),"FVB strain of mice [3]; FIG. 3, high fat diet mice",attenuated the hypoalgesic
same,"(Mean − Mean0)/Std0 (Wilcoxon rank sums, hot plate latency)",FVB strain of mice [3]; High Fat-D group,−1.528
same,"Score Mean (Wilcoxon rank sums, hot plate latency)",FVB strain of mice [3]; High Fat-D group,6.600
same,"Score Sum (Wilcoxon rank sums, hot plate latency)",FVB strain of mice [3]; High Fat-D group,33.000
same,"(Mean − Mean0)/Std0 (Wilcoxon rank sums, hot plate latency)",FVB strain of mice [3]; Normal-D group,1.898
same,"Score Mean (Wilcoxon rank sums, hot plate latency)",FVB strain of mice [3]; Normal-D group,14.200
same,"Score Sum (Wilcoxon rank sums, hot plate latency)",FVB strain of mice [3]; Normal-D group,71.000
same,thermal responses of high-fat-diet-drug-treated subjects compared with Normal Diet-vehicle-treated (tail-flick),FVB strain of mice [4]; FIG. 4,virtually no difference was observed
same,effect on hypoalgesic conditions induced by diabetic conditions (tail-flick test),"FVB strain of mice [4]; FIG. 4, high fat diet mice",attenuated the hypoalgesic
same,"(Mean − Mean0)/Std0 (Wilcoxon rank sums, tail-flick latency)",FVB strain of mice [4]; High Fat-D group,−2.268
same,"Score Mean (Wilcoxon rank sums, tail-flick latency)",FVB strain of mice [4]; High Fat-D group,5.000
same,"Score Sum (Wilcoxon rank sums, tail-flick latency)",FVB strain of mice [4]; High Fat-D group,25.000
same,"(Mean − Mean0)/Std0 (Wilcoxon rank sums, tail-flick latency)",FVB strain of mice [4]; Normal-D group,−0.139
same,"Score Mean (Wilcoxon rank sums, tail-flick latency)",FVB strain of mice [4]; Normal-D group,9.600
same,"Score Sum (Wilcoxon rank sums, tail-flick latency)",FVB strain of mice [4]; Normal-D group,48.000
